Source: ChEMBL document CHEMBL5113479, “Pyrido[2,3-d]pyrimidine-2,4(1H,3H)-dione derivatives as RAF-MEK-ERK pathway signaling pathway blockers: Synthesis, cytotoxic activity, mechanistic investigation and structure-activity relationships” (Eur J Med Chem, 2022)
pIC50: −log10 of the molar value.

Legend:
MCF7 = experiment: Antiproliferative activity against human MCF7 cells assessed as inhibition of cell growth measured after 72 hrs by CCK8 assay; format: functional, cell-based; conditions: MCF7, 72 h
A-375 = experiment: Antiproliferative activity against human A-375 cells assessed as inhibition of cell growth measured after 72 hrs by CCK8 assay; format: functional, cell-based; conditions: A-375, 72 h
SK-MEL-2 = experiment: Antiproliferative activity against human SK-MEL-2 cells assessed as inhibition of cell growth measured after 72 hrs by CCK8 assay; format: functional, cell-based; conditions: SK-MEL-2, 72 h
SK-HEP1 = experiment: Antiproliferative activity against human SK-HEP1 cells assessed as inhibition of cell growth measured after 72 hrs by CCK8 assay; format: functional, cell-based; conditions: SK-HEP1, 72 h
[1] = Cytotoxicity against human C-28/I2 cells measured after 72 hrs by CCK8 assay; format: toxicity, cell-based

Row | SMILES | pIC50 (MCF7) | pIC50 (A-375) | pIC50 (SK-MEL-2) | pIC50 (SK-HEP1) | CC50 at 72 h [1]
1 | O=c1[nH]cc(F)c(=O)[nH]1 [FLUOROURACIL] | 5.13 | 5.22 | 5.19 | 5.31 | –
2 | CN(C)c1cc(NCC(=O)Nc2ccc(Cl)cc2)c2c(=O)n(C)c(=O)n(C)c2n1 | 4.31 | < 4.30 | – | – | > 100 µM
3 | CN(C)c1cc(NCC(=O)Nc2cccc(Cl)c2)c2c(=O)n(C)c(=O)n(C)c2n1 | – | < 4.30 | 4.39 | – | > 100 µM
4 | Cn1c(=O)c2c(NCC(=O)Nc3ccc(F)cc3)cc(N3CCCC3)nc2n(C)c1=O | 4.40 | < 4.30 | – | – | > 100 µM
5 | CN1CCN(c2cc(NCC(=O)Nc3ccc(C(F)(F)F)cc3)c3c(=O)n(C)c(=O)n(C)c3n2)CC1 | < 4.30 | < 4.30 | 4.33 | – | > 50 µM
6 | Cc1cccc(NC(=O)CNc2cc(N3CCN(C)CC3)nc3c2c(=O)n(C)c(=O)n3C)c1 | – | 4.40 | 4.37 | 4.76 | > 25 µM
7 | Cn1c(=O)c2c(NCC(=O)Nc3ccc(F)cc3)cc(N3CCOCC3)nc2n(C)c1=O | 4.34 | < 4.30 | – | – | > 100 µM
8 | CN(C)c1cc(NCC(=O)Nc2ccc(C(F)(F)F)cc2)c2c(=O)n(C)c(=O)n(C)c2n1 | – | 4.36 | < 4.30 | – | > 50 µM
9 | Cn1c(=O)c2c(NC3CC3)c(Cc3ccccc3)c(=O)n(C)c2n(C)c1=O | 4.44 | 4.34 | – | – | > 100 µM
10 | CN(C)c1cc(NCC(=O)Nc2ccc(F)cc2)c2c(=O)n(C)c(=O)n(C)c2n1 | 4.32 | 4.34 | – | – | > 100 µM
11 | CN1CCN(c2cc(NCC(=O)Nc3ccc(OC(F)(F)F)cc3)c3c(=O)n(C)c(=O)n(C)c3n2)CC1 | 4.41 | 4.52 | 4.44 | 4.47 | > 100 µM
12 | Cn1c(=O)c2c(NCC(=O)Nc3ccccc3)cc(N3CCCC3)nc2n(C)c1=O | 4.37 | < 4.30 | – | – | > 100 µM
13 | Cc1ccccc1NC(=O)CNc1cc(N(C)C)nc2c1c(=O)n(C)c(=O)n2C | 4.30 | < 4.30 | – | – | > 100 µM
14 | Cn1c(=O)c2c(NCC(=O)Nc3cccc(C(F)(F)F)c3)cc(N3CCOCC3)nc2n(C)c1=O | 4.92 | 5.13 | 5.39 | 4.96 | > 100 µM
15 | Cn1c(=O)c2c(Nc3ccc(F)c(Cl)c3)cc(=O)n(C)c2n(C)c1=O | < 4.30 | 4.30 | – | – | > 100 µM
16 | CCn1c(=O)n(C)c(=O)c2c(Nc3ccccc3C(=O)OC)cc(=O)n(C)c21 | < 4.30 | < 4.30 | – | – | > 100 µM
17 | CCn1c(=O)n(C)c(=O)c2c(Nc3ccccn3)cc(=O)n(C)c21 | 4.46 | 4.40 | – | – | > 100 µM
18 | Cn1c(=O)c2c(NCCCN3CCOCC3)c(Cc3ccccc3)c(=O)n(C)c2n(C)c1=O | < 4.30 | < 4.30 | – | – | > 100 µM

Row | SMILES | pIC50 (MCF7) | pIC50 (A-375) | pIC50 (SK-MEL-2) | pIC50 (SK-HEP1) | CC50 at 72 h [1]
19 | Cn1c(=O)c2c(NCC(=O)Nc3ccc(Cl)cc3)cc(N3CCOCC3)nc2n(C)c1=O | – | 4.36 | 4.33 | – | > 100 µM
20 | COC(=O)c1ccccc1Nc1cc(=O)n(C)c2c1c(=O)n(C)c(=O)n2C | 4.48 | < 4.30 | – | – | > 100 µM
21 | Cn1c(=O)c2c(Nc3ccccn3)cc(=O)n(C)c2n(C)c1=O | 4.99 | 4.60 | – | – | > 100 µM
22 | Cn1c(=O)c2c(NCC(=O)Nc3cccc(Cl)c3)cc(N3CCCC3)nc2n(C)c1=O | – | 4.31 | < 4.30 | – | > 100 µM
23 | Cn1c(=O)c2c(NCC(=O)Nc3ccc(Cl)cc3)cc(N3CCCC3)nc2n(C)c1=O | 4.39 | 4.32 | – | – | > 100 µM
24 | CCn1c(=O)n(C)c(=O)c2c(Nc3ccc(F)c(Cl)c3)cc(=O)n(C)c21 | < 4.30 | < 4.30 | – | – | > 100 µM
25 | Cn1c(=O)c2c(NCC(=O)Nc3ccc(OC(F)(F)F)cc3)cc(N3CCCC3)nc2n(C)c1=O | 4.44 | < 4.30 | – | – | > 100 µM
26 | CN(C)c1cc(NCC(=O)Nc2ccc(OC(F)(F)F)cc2)c2c(=O)n(C)c(=O)n(C)c2n1 | – | 4.41 | < 4.30 | – | > 25 µM
27 | Cn1c(=O)c2c(Nc3ccc(OC(F)(F)F)cc3)cc(=O)n(C)c2n(C)c1=O | 4.30 | 4.39 | – | – | > 100 µM
28 | CN(C)c1cc(NCC(=O)Nc2cccc(C(F)(F)F)c2)c2c(=O)n(C)c(=O)n(C)c2n1 | – | 4.50 | < 4.30 | – | > 100 µM
29 | Cc1ccccc1NC(=O)CNc1cc(N2CCCC2)nc2c1c(=O)n(C)c(=O)n2C | 4.80 | 5.12 | 5.18 | 4.97 | > 100 µM
30 | Cn1c(=O)c2c(NCC(=O)Nc3ccc(C(F)(F)F)cc3)cc(N3CCOCC3)nc2n(C)c1=O | 4.33 | < 4.30 | – | – | > 100 µM
31 | CN(C)CCNc1c(Cc2ccccc2)c(=O)n(C)c2c1c(=O)n(C)c(=O)n2C | < 4.30 | < 4.30 | – | – | > 100 µM
32 | CN1CCN(c2cc(NCC(=O)Nc3ccc(Cl)cc3)c3c(=O)n(C)c(=O)n(C)c3n2)CC1 | < 4.30 | < 4.30 | 4.65 | < 4.30 | > 25 µM
33 | Cc1ccccc1NC(=O)CNc1cc(=O)n(C)c2c1c(=O)n(C)c(=O)n2C | 4.76 | 4.89 | – | – | > 100 µM
34 | CN1CCN(c2cc(NCC(=O)Nc3cccc(C(F)(F)F)c3)c3c(=O)n(C)c(=O)n(C)c3n2)CC1 | – | 4.35 | < 4.30 | – | > 100 µM
35 | CN1CCN(c2cc(NCC(=O)Nc3ccc(F)cc3)c3c(=O)n(C)c(=O)n(C)c3n2)CC1 | 4.48 | 4.35 | 4.70 | 4.47 | > 50 µM
36 | CC(C)Nc1c(Cc2ccccc2)c(=O)n(C)c2c1c(=O)n(C)c(=O)n2C | 5.00 | 4.61 | – | – | > 100 µM
